Measurements: patent publication US10645928B2, “Pesticidally active polycyclic derivatives with sulfur containing substituents” (Syngenta Participations AG, priority 2014, dated 2020)

Assays:
Format in all cases: in vivo
[1] = system: Diabrotica balteata (Corn Root Worm); assay: Example B2: Diabrotica balteata, sprayed maize sprouts, mortality and growth inhibition; settings: 96 h, application rate of 200 ppm, L2 larvae, 4 days after infestation, read-out: effect in at least one of the two categories (mortality or growth inhibition)
Protocol: Maize sprouts placed onto an agar layer in 24-well microtiter plates were treated with aqueous test solutions prepared from 10,000 ppm DMSO stock solutions by spraying. After drying, the plates were infested with L2 larvae (6 to 10 per well). The samples were assessed for mortality and growth inhibition in comparison to untreated samples 4 days after infestation.

[2] = system: Diabrotica balteata (Corn Root Worm); assay: Example B3: Diabrotica balteata, sprayed maize sprouts, mortality; settings: 96 h, application rate of 200 ppm, L2 larvae, 4 days after infestation
Protocol: Maize sprouts placed onto an agar layer in 24-well microtiter plates were treated with aqueous test solutions prepared from 10,000 ppm DMSO stock solutions by spraying. After drying, the plates were infested with L2 larvae (6 to 10 per well). The samples were assessed for mortality 4 days after infestation.

[3] = system: Euschistus heros (Neotropical Brown Stink Bug); assay: Example B5: Euschistus heros, sprayed soybean leaves, mortality; settings: 120 h, application rate of 200 ppm, N2 nymphs, 5 days after infestation
Protocol: Soybean leaves on agar in 24-well microtiter plates were sprayed with aqueous test solutions prepared from 10,000 ppm DMSO stock solutions. After drying the leaves were infested with N2 nymphs. The samples were assessed for mortality 5 days after infestation.

[4] = system: Euschistus heros (Neotropical Brown Stink Bug); assay: Example B6: Euschistus heros, sprayed soybean leaves, mortality and growth inhibition; settings: 120 h, application rate of 200 ppm, N2 nymphs, 5 days after infestation, read-out: effect in at least one of the two categories (mortality or growth inhibition)
Protocol: Soybean leaves on agar in 24-well microtiter plates were sprayed with aqueous test solutions prepared from 10,000 ppm DMSO stock solutions. After drying the leaves were infested with N2 nymphs. The samples were assessed for mortality and growth inhibition in comparison to untreated samples 5 days after infestation.

[5] = system: Myzus persicae (Green Peach Aphid); assay: Example B8: Myzus persicae, sprayed sunflower leaf discs, mortality; settings: foliar, 144 h, application rate of 200 ppm, leaf disc spray, aphid population of mixed ages, 6 days after infestation
Protocol: Sunflower leaf discs were placed onto agar in a 24-well microtiter plate and sprayed with aqueous test solutions prepared from 10,000 ppm DMSO stock solutions. After drying, the leaf discs were infested with an aphid population of mixed ages. The samples were assessed for mortality 6 days after infestation.

[6] = system: Plutella xylostella (Diamond Back Moth); assay: Example B10: Plutella xylostella, treated artificial diet, growth inhibition; settings: 120 h, application rate of 200 ppm, L2 larvae, 5 days after infestation
Protocol: 24-well microtiter plates with artificial diet were treated with aqueous test solutions prepared from 10,000 ppm DMSO stock solutions by pipetting. After drying, the plates were infested with L2 larvae (10 to 15 per well). The samples were assessed for growth inhibition in comparison to untreated samples 5 days after infestation. Control of Plutella xylostella by a test sample is given when the growth inhibition is higher than the untreated sample.

[7] = system: Plutella xylostella (Diamond Back Moth); assay: Example B12: Plutella xylostella, treated artificial diet, mortality; settings: 120 h, application rate of 200 ppm, L2 larvae, 5 days after infestation
Protocol: 24-well microtiter plates with artificial diet were treated with aqueous test solutions prepared from 10,000 ppm DMSO stock solutions by pipetting. After drying, the plates were infested with L2 larvae (10 to 15 per well). The samples were assessed for mortality 5 days after infestation.

[8] = system: Plutella xylostella (Diamond Back Moth); assay: Example B13: Plutella xylostella, treated artificial diet, mortality and growth inhibition; settings: 120 h, application rate of 200 ppm, L2 larvae, 5 days after infestation, read-out: effect in at least one of the two categories (mortality or growth inhibition)
Protocol: 24-well microtiter plates with artificial diet were treated with aqueous test solutions prepared from 10,000 ppm DMSO stock solutions by pipetting. After drying, the plates were infested with L2 larvae (10 to 15 per well). The samples were assessed for mortality and growth inhibition in comparison to untreated samples 5 days after infestation.

[9] = system: Spodoptera littoralis (Egyptian Cotton Leaf Worm); assay: Example B14: Spodoptera littoralis, sprayed cotton leaf discs, anti-feeding effect; settings: foliar, 72 h, application rate of 200 ppm, L1 larvae, 3 days after infestation
Protocol: Cotton leaf discs were placed onto agar in 24-well microtiter plates and sprayed with aqueous test solutions prepared from 10,000 ppm DMSO stock solutions. After drying the leaf discs were infested with five L1 larvae. The samples were assessed for anti-feeding effect in comparison to untreated samples 3 days after infestation. Control of Spodoptera littoralis by a test sample is given when the anti-feedant effect is higher than the untreated sample.

[10] = system: Spodoptera littoralis (Egyptian Cotton Leaf Worm); assay: Example B16: Spodoptera littoralis, sprayed cotton leaf discs, mortality; settings: foliar, 72 h, application rate of 200 ppm, L1 larvae, 3 days after infestation
Protocol: Cotton leaf discs were placed onto agar in 24-well microtiter plates and sprayed with aqueous test solutions prepared from 10,000 ppm DMSO stock solutions. After drying the leaf discs were infested with five L1 larvae. The samples were assessed for mortality 3 days after infestation.

[11] = system: Spodoptera littoralis (Egyptian Cotton Leaf Worm); assay: Example B17: Spodoptera littoralis, sprayed cotton leaf discs, mortality, anti-feeding effect and growth inhibition; settings: foliar, 72 h, application rate of 200 ppm, L1 larvae, 3 days after infestation, read-out: control (at least one of mortality, anti-feedant effect, growth inhibition)
Protocol: Cotton leaf discs were placed onto agar in 24-well microtiter plates and sprayed with aqueous test solutions prepared from 10,000 ppm DMSO stock solutions. After drying the leaf discs were infested with five L1 larvae. The samples were assessed for mortality, anti-feeding effect, and growth inhibition in comparison to untreated samples 3 days after infestation. Control of Spodoptera littoralis by a test sample is given when at least one of the categories mortality, anti-feedant effect, and growth inhibition is higher than the untreated sample.

[12] = system: Spodoptera littoralis (Egyptian Cotton Leaf Worm); assay: Example B18: Spodoptera littoralis, compound in agar absorbed by lettuce roots, mortality, anti-feedant effect and growth inhibition; settings: 144 h, test rate of 12.5 ppm, uptake by lettuce roots, Spodoptera eggs, 6 days after infestation, read-out: effect in at least one of the three categories (mortality, anti-feeding, or growth inhibition)
Text: Test compounds were applied by pipette from 10,000 ppm DMSO stock solutions into 24-well plates and mixed with agar. Lettuce seeds were placed onto the agar and the multi well plate was closed by another plate which contained also agar. After 7 days the compound was absorbed by the roots and the lettuce grew into the lid plate. The lettuce leaves were then cut off into the lid plate. Spodoptera eggs were pipetted through a plastic stencil onto a humid gel blotting paper and the lid plate was closed with it. The samples were assessed for mortality, anti-feedant effect and growth inhibition in comparison to untreated samples 6 days after infestation.

[13] = system: Spodoptera littoralis (Egyptian Cotton Leaf Worm); assay: Example B19: Spodoptera littoralis, compound in agar absorbed by lettuce roots, anti-feedant effect; settings: 144 h, test rate of 12.5 ppm, uptake by lettuce roots, Spodoptera eggs, 6 days after infestation, read-out: anti-feeding
Text: Test compounds were applied by pipette prepared from 10,000 ppm DMSO stock solutions into 24-well plates and mixed with agar. Lettuce seeds were placed onto the agar and the multi well plate was closed by another plate which contained also agar. After 7 days the compound was absorbed by the roots and the lettuce grew into the lid plate. The lettuce leaves were then cut off into the lid plate. Spodoptera eggs were pipetted through a plastic stencil onto a humid gel blotting paper and the lid plate was closed with it. The samples were assessed for anti-feedant effect in comparison to untreated samples 6 days after infestation.

[14] = system: Spodoptera littoralis (Egyptian Cotton Leaf Worm); assay: Example B20: Spodoptera littoralis, compound in agar absorbed by lettuce roots, mortality; settings: 144 h, test rate of 12.5 ppm, uptake by lettuce roots, Spodoptera eggs, 6 days after infestation
Text: Test compounds were applied by pipette prepared from 10,000 ppm DMSO stock solutions into 24-well plates and mixed with agar. Lettuce seeds were placed onto the agar and the multi well plate was closed by another plate which contained also agar. After 7 days the compound was absorbed by the roots and the lettuce grew into the lid plate. The lettuce leaves were then cut off into the lid plate.
Spodoptera eggs were pipetted through a plastic stencil onto a humid gel blotting paper and the lid plate was closed with it. The samples were assessed for mortality 6 days after infestation.

[15] = system: Aedes aegypti (Yellow Fever Mosquito); assay: Example B23: Aedes aegypti, dry deposits in 12 well tissue culture plates, control; settings: application rate of 200 ppm in ethanol, adult females, after 48 h and/or 24 h
Protocol: Test solutions, at an application rate of 200 ppm in ethanol, were applied to 12 well tissue culture plates. Once the deposits were dry, five, two to five day old adult female Aedes aegypti were added to each well, and sustained with a 10% sucrose solution in a cotton wool plug. Assessment of knockdown was made one hour after introduction, and mortality was assessed at 24 and 48 hours after introduction.

CCS(=O)(=O)c1cc(-n2ccc(C(F)(F)F)n2)ccc1-c1cn2cnc(C(F)(F)F)cc2n1 [Compound P1, 2-[2-ethylsulfonyl-4-[3-(trifluoromethyl)pyrazol-1-yl]phenyl]-7-(trifluoromethyl)imidazo[1,2-c]pyrimidine]
≥ 80%: percent effect (mortality or growth inhibition) at 200 ppm [1] | mortality at 200 ppm [2] | mortality at 200 ppm [3] | percent effect (mortality or growth inhibition) at 200 ppm [4] | mortality at 200 ppm [5] | inhibition at 200 ppm [6] | mortality at 200 ppm [7] | percent effect (mortality or growth inhibition) at 200 ppm [8] | pest or weed control at 200 ppm [9] | mortality at 200 ppm [10] | percent control (mortality, anti-feedant effect or growth inhibition) at 200 ppm [11] | percent effect (mortality, anti-feeding or growth inhibition) at 12.5 ppm [12] | pest or weed control at 12.5 ppm [13] | mortality at 12.5 ppm [14] | pest or weed control at 200 ppm [15]

CCS(=O)(=O)c1cc(-c2ccc(C(F)(F)F)cc2)ccc1-c1cn2cnc(C(F)(F)F)cc2n1 [Compound P2, 2-[2-ethylsulfonyl-4-[4-(trifluoromethyl)phenyl]phenyl]-7-(trifluoromethyl)imidazo[1,2-c]pyrimidine]
≥ 80%: percent effect (mortality or growth inhibition) at 200 ppm [1] | mortality at 200 ppm [2] | mortality at 200 ppm [7] | percent effect (mortality or growth inhibition) at 200 ppm [8] | pest or weed control at 200 ppm [9] | mortality at 200 ppm [10] | percent control (mortality, anti-feedant effect or growth inhibition) at 200 ppm [11] | pest or weed control at 200 ppm [15]

CCS(=O)(=O)c1cc(-c2ccc(Cl)cc2)ccc1-c1cn2cnc(C(F)(F)F)cc2n1 [Compound P3]
≥ 80%: percent effect (mortality or growth inhibition) at 200 ppm [1] | mortality at 200 ppm [2] | pest or weed control at 200 ppm [9] | mortality at 200 ppm [10] | percent control (mortality, anti-feedant effect or growth inhibition) at 200 ppm [11]

CCS(=O)(=O)c1cc(-c2ccc(C(F)(F)F)cc2)cnc1-c1cn2cnc(C(F)(F)F)cc2n1 [Compound P6, 2-[3-ethylsulfonyl-5-[4-(trifluoromethyl)phenyl]-2-pyridyl]-7-(trifluoromethyl)imidazo[1,2-c]pyrimidine]
≥ 80%: percent effect (mortality or growth inhibition) at 200 ppm [1] | mortality at 200 ppm [2] | mortality at 200 ppm [3] | percent effect (mortality or growth inhibition) at 200 ppm [4] | mortality at 200 ppm [7] | percent effect (mortality or growth inhibition) at 200 ppm [8] | pest or weed control at 200 ppm [9] | mortality at 200 ppm [10] | percent control (mortality, anti-feedant effect or growth inhibition) at 200 ppm [11] | percent effect (mortality, anti-feeding or growth inhibition) at 12.5 ppm [12] | pest or weed control at 12.5 ppm [13] | mortality at 12.5 ppm [14] | pest or weed control at 200 ppm [15]

CCS(=O)(=O)c1cc(-c2ccc(OC(F)(F)F)cc2)cnc1-c1cn2cnc(C(F)(F)F)cc2n1 [Compound P12]
≥ 80%: percent effect (mortality or growth inhibition) at 200 ppm [1] | mortality at 200 ppm [2] | mortality at 200 ppm [3] | percent effect (mortality or growth inhibition) at 200 ppm [4] | mortality at 200 ppm [7] | percent effect (mortality or growth inhibition) at 200 ppm [8] | pest or weed control at 200 ppm [9] | mortality at 200 ppm [10] | percent control (mortality, anti-feedant effect or growth inhibition) at 200 ppm [11] | percent effect (mortality, anti-feeding or growth inhibition) at 12.5 ppm [12] | pest or weed control at 12.5 ppm [13] | mortality at 12.5 ppm [14] | pest or weed control at 200 ppm [15]
